The values that follow come from ChEMBL document CHEMBL5604062, “ASAP - ZIKV NS2B-NS3 protease fluorescence dose response” (2024).

Broadly, the IC50 is the concentration that inhibits the measured activity by half. Read a high IC50 as a need for much substance.

Each structure is given as a SMILES string.

The target of the experiment is Nonstructural protein 3 (Zika virus, UniProt A0A024AXB9). Nature of the experiment: Functional biochemical assay to identify treatments for viral infectious disease that targets Zika NS2B-NS3 protease. Utilizing a direct enzyme activity measurement method, reading the fluorescence intensity is used to characterize the relative potency of inhibitors as IC50. On the set-up: species or system PRVABC59.
Nonstructural protein 3, sequence (A0A024AXB9 whole entry): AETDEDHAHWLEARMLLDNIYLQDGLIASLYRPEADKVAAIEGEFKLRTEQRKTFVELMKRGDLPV

On to `NCc1cccc(NC(=O)[C@@H](NC(=O)OCc2ccccc2)C2CCN(S(=O)(=O)C3CCCC3)CC2)c1`, for which the IC50 is > 99.5 µM. For `NCc1cccc(NC(=O)c2cc(Cl)cc(-n3cccc3)c2)c1`, the midpoint of inhibition, the IC50, lay at 2.7 µM. Regarding `NCc1cccc(NC(=O)[C@@H](NC(=O)OCc2ccccc2)C2CCN(C(=O)C3CC3)CC2)c1`, the IC50 was > 99.5 µM.

Regarding `NCc1cccc(NC(=O)[C@@H](NC(=O)OCc2ccccc2)C2CCN(Cc3cn[nH]c3)CC2)c1`, the IC50 is > 99.5 µM. Turning to `C[C@@H]1CNC[C@H]1c1ccc(NC(=O)c2ccc3c(c2)SCCN3)cc1`, the IC50 was > 99.5 µM. Regarding `NCc1cccc(NC(=O)c2ccc(F)c(NC(=O)OCc3ccccc3)c2F)c1`, the IC50 is > 99.5 µM. With `Cc1nnsc1CN1CCC([C@@H](NC(=O)OCc2ccccc2)C(=O)Nc2cccc(CN)c2)CC1`, the IC50 is > 99.5 µM. With `N#Cc1ccc(N2CCN(Cc3c[nH]c4ccccc34)CC2)cc1`, inhibition was half-maximal at 86.2 µM (IC50). As for `NCc1cccc(NC(=O)[C@@H](NC(=O)OCc2ccccc2)C2CCN(Cc3cccnc3)CC2)c1`, the IC50 is > 99.5 µM. For `N#Cc1cc(Cl)cc(C(=O)Nc2cccc(CN)c2)c1`, the IC50 turned out to be 11 µM. On to `c1ccc(-c2[nH]c3ccccc3c2CN2CCC(c3cscn3)CC2)cc1`, for which the IC50 came to 34.4 µM.

Compound `NCc1cccc(NC(=O)c2cc(Cl)ccc2Oc2cccc(Cl)c2)c1` yielded an IC50 of 61.7 µM.

In the case of `NCC12CC(NC(=O)c3cc(Cl)cc(NC(=O)OCc4ccccc4)c3)(CCO1)C2`, the IC50 was > 99.5 µM. `COc1c(Cl)cc(Cl)cc1C(=O)Nc1cccc(CN)c1` gave an IC50 of 13.9 µM. As for `O=C(Cn1ccnc(N2CC[C@H](CO)C2)c1=O)N[C@H]1CCOC1`, the IC50 is > 99.5 µM. On to `CCCOc1ccc2[nH]cc(CN3CCC(c4cscn4)CC3)c2c1`, for which the IC50 is > 99.5 µM. The value for `NCc1cccc(/C=C/c2cc(Cl)cc(NC(=O)OCc3ccccc3)c2)c1` was 22.3 µM; that for `NS(=O)(=O)c1ccccc1N1CCN(Cc2c[nH]c3ccccc23)CC1` was > 99.5 µM; that for `NCc1cccc(NC(=O)[C@@H](NC(=O)OCc2ccccc2)c2ccc(OCc3ccccn3)cc2)c1` was > 99.5 µM. `C=CC[C@]1(NC(=O)c2cc(Cl)cc(NC(=O)OCc3ccccc3)c2)CCNC1`: the IC50 was > 99.5 µM. As for `CCOC(=O)Nc1cc(Cl)cc(C(=O)Nc2cccc(CN)c2)c1`, it took 3.2 µM to reach half-maximal inhibition (IC50). In turn, `NCc1cccc(NC(=O)[C@@H](NC(=O)OCc2ccccc2)c2ccc(OCc3nc4c(s3)COCC4)cc2)c1` registered an IC50 of 65.1 µM. Against the preceding compound, the IC50 is about 20-fold higher.

On to `O=C(Nc1cc(Cl)cc(C(=O)NC[C@@]23CN[C@H](CCO2)C3)c1)OCc1ccccc1`, for which the IC50 is > 99.5 µM. With `NCc1ccc(F)c(NC(=O)c2cc(Cl)cc(NC(=O)OCc3ccccc3)c2)c1`, the IC50 came to 4.35 µM.

As to `NC[C@@H](NC(=O)c1cc(Cl)cc(NC(=O)OCc2ccccc2)c1)c1ccccc1`, the 50% inhibitory concentration (IC50) is > 99.5 µM. The value for `O=C(Nc1cc(Cl)cc(C(=O)NC[C@@H]2CNCCC2(F)F)c1)OCc1ccccc1` was > 99.5 µM.

As for `c1ccc(N2CCN(Cc3c[nH]c4ccccc34)CC2)nc1`, the IC50 was > 99.5 µM. As for `c1ccc(COc2ccc3c(CN4CCC(c5cscn5)CC4)c[nH]c3c2)cc1`, the IC50 is > 99.5 µM. The value for `NCc1cccc(NC(=O)[C@@H](NC(=O)OCc2ccccc2)C2CCN(S(=O)(=O)Cc3cscn3)CC2)c1` was > 99.5 µM; that for `CCc1[nH]c2ccccc2c1CN1CCC(c2cscn2)CC1` was 21 µM.

For the compound `NCc1ccc(CNC(=O)c2cc(Cl)cc(NC(=O)OCc3ccccc3)c2)c(F)c1`, the IC50 was 32.9 µM.

As for `NCc1cccc(NC(=O)[C@@H](NC(=O)OCc2ccccc2)c2ccc(OC[C@H]3CCS(=O)(=O)C3)cc2)c1`, the IC50 is > 99.5 µM. On to `CCC1(NC(=O)Cn2ccnc(N3CC[C@@H](CO)C3)c2=O)CC1`, for which the IC50 was > 99.5 µM. For `NCc1cccc(NC(=O)c2cc(Cl)cc(Cl)c2O)c1`, the IC50 was > 99.5 µM.

Take `O=C(Nc1cc(Cl)cc(C(=O)NC[C@@]23CC[C@H](CNC2)C3)c1)OCc1ccccc1`: the IC50 is > 99.5 µM. The compound `NC[C@H]1C[C@](F)(CNC(=O)c2cc(Cl)cc(NC(=O)OCc3ccccc3)c2)C1` registered an IC50 of 67 µM. That is a double-digit micromolar value. For the compound `NCc1cccc(NC(=O)[C@@H](NC(=O)OCc2ccccc2)C2CCN(S(=O)(=O)[C@H]3CCOC3)CC2)c1`, the IC50 was > 99.5 µM. In turn, `CC(=O)Nc1cc(Cl)cc(C(=O)Nc2cccc(CN)c2)c1` showed an IC50 of 3.52 µM. This counts as single-digit micromolar. The compound `NC[C@]12CC[C@](NC(=O)c3cc(Cl)cc(NC(=O)OCc4ccccc4)c3)(CO1)C2` came in with an IC50 of 49.4 µM. `NCc1cccc(NC(=O)[C@@H](NC(=O)OCc2ccccc2)C2CCN(S(=O)(=O)Cc3ncon3)CC2)c1`: the IC50 was > 99.5 µM. For the compound `CNCc1cccc(NC(=O)c2cc(Cl)cc(NC(=O)OCc3ccccc3)c2)c1`, the midpoint of inhibition, the IC50, lay at 19.6 µM. As to `NCc1cccc(NC(=O)[C@@H](NC(=O)OCc2ccccc2)C2CCN(C3CCOCC3)CC2)c1`, the IC50 was > 99.5 µM. Consider `Clc1ccc2c(CN3CCC(c4c[nH]c5ncccc45)CC3)c[nH]c2c1`, for which it took 24.9 µM to reach half-maximal inhibition (IC50). With `O=C(Nc1cc(Cl)cc(C(=O)NC[C@H]2CCNC3(CC3)C2)c1)OCc1ccccc1`, the IC50 is > 99.5 µM.

Consider `Cc1ncc(COc2ccc([C@@H](NC(=O)OCc3ccccc3)C(=O)Nc3cccc(CN)c3)cc2)o1`, for which the half-maximal inhibitory concentration (IC50) is > 99.5 µM.

In turn, `O=C(Nc1cc(Cl)cc(C(=O)N[C@@]23CCCCC[C@@H]2NCC3)c1)OCc1ccccc1` showed an IC50 of 76.1 µM. This counts as double-digit micromolar. `N[C@H]1CC[C@H](NC(=O)c2cc(Cl)cc(NC(=O)OCc3ccccc3)c2)C1` gave an IC50 of 69.7 µM. The IC50 values of the last two compounds are within 1.5-fold of each other. For the compound `COCC(=O)N1CCC([C@@H](NC(=O)OCc2ccccc2)C(=O)Nc2cccc(CN)c2)CC1`, the IC50 was > 99.5 µM.

Take `CCCC(=O)Nc1cc(Cl)cc(C(=O)Nc2cccc(CN)c2)c1`: the IC50 is 4.37 µM. Turning to `CC(C)S(=O)(=O)N1CCC([C@@H](NC(=O)OCc2ccccc2)C(=O)Nc2cccc(CN)c2)CC1`, the IC50 is > 99.5 µM. Turning to `CS(=O)(=O)N1CCC([C@@H](NC(=O)OCc2ccccc2)C(=O)Nc2cccc(CN)c2)CC1`, the IC50 is > 99.5 µM. Regarding `O=C(Nc1cc(Cl)cc(C(=O)Nc2ccc3c(c2)CNCCO3)c1)OCc1ccccc1`, the IC50 is 7.69 µM. To `O=C(Nc1cc(Cl)cc(C(=O)NC2([C@H]3CCNC3)CC2)c1)OCc1ccccc1` belongs > 99.5 µM.

The compound `N[C@@H]1CC[C@H](CCNC(=O)c2cc(Cl)cc(NC(=O)OCc3ccccc3)c2)C1` had an IC50 of 61 µM. Consider `NCc1cccc(NC(=O)[C@@H](NC(=O)OCc2ccccc2)c2ccc(OCCN3CCCCC3)cc2)c1`, for which the IC50 was > 99.5 µM.

The compound `Cc1cc(C(=O)Nc2cccc(CN)c2)cc(NC(=O)OCc2ccccc2)c1Cl` had an IC50 of 39 µM.

For the compound `N[C@@H]1CC[C@H](NC(=O)c2cc(Cl)cc(NC(=O)OCc3ccccc3)c2)C1`, it took 45.3 µM to reach half-maximal inhibition (IC50). On to `NCc1cccc(NC(=O)[C@@H](NC(=O)OCc2ccccc2)c2ccc(OCc3cnccn3)cc2)c1`, for which the IC50 was > 99.5 µM.

The compound `NCc1cc(F)cc(NC(=O)c2cc(Cl)cc(NC(=O)OCc3ccccc3)c2)c1` gave an IC50 of 5.86 µM. This lies in the single-digit micromolar range. As to `Cn1nc2c(c1NC(=O)c1cc(Cl)cc(NC(=O)OCc3ccccc3)c1)CNCC2`, the IC50 came to 21.9 µM. For `NS(=O)(=O)c1cccc(N2CCN(Cc3c[nH]c4ccccc34)CC2)c1`, the IC50 is > 99.5 µM.

As for `Cc1csc(N2CCN(Cc3c[nH]c4ccccc34)CC2)n1`, the IC50 was > 99.5 µM.

For `C[C@@H](N)c1cccc(NC(=O)c2cc(Cl)cc(NC(=O)OCc3ccccc3)c2)c1`, 22.7 µM corresponded to half-maximal inhibition (IC50).
